Assay results: patent US20220323443A1, “COMBINATION THERAPY FOR CANCER TREATMENT” (TAKEDA PHARMACEUTICAL COMPANY LIMITED, priority 2019, published 2022)
“Also recorded” adds a separate entry of the source.

How the values were obtained:
[1] = tested on: repair of IR-induced DSBs in HeLa cells; assay: 53BP1 foci assay of irradiation-induced DNA double-strand breaks; assay type: cell-based, human
Experimental: Human cervical adenocarcinoma HeLa cells were treated with or without Compound 1 treatment at 300 nM, followed by irradiation (IR) treatment at 4 Gy using an X-ray irradiator (MBR-1520R-3, Hitachi Power Solutions Co., Ltd., Ibaraki). Eight or forty-eight hours after IR treatment, the cells were fixed with 4% paraformaldehyde for the following immunofluorescent experiments. Foci formation of 53BP1 was used as an index of IR-induced DSBs. After permeabilization, the cells were incubated with anti-53BP1 antibody (2 μg/ml) for 60 min at 37° C., and then incubated with Alexa-594-conjugated secondary antibody for 30 min at 37° C. Images were captured with an Axiovert 200M microscope (Carl Zeiss).

[2] = tested on: CT26 Mouse syngeneic colon tumor model; assay: In vivo combination study, syngeneic mouse tumor isograft model; conditions: note to Table 9
[3] = tested on: A20 (Lymphoma); assay: as above; conditions: note to Table 9
[4] = tested on: Twelve cancer cell lines (A549, BxPC3, Calu-1, COLO205, KYSE140, KYSE150, KYSE520, KYSE70, MIA PaCa-2, NCI-H292, PANC1, and RKO); assay: CRISPR-Cas9 knock-out screening for genes sensitizing to compound 1; assay type: cell-based; conditions: hit genes: ES<0 and p-value <0.05, control vs low dose compound 1, in more than three cancer cell lines
[5] = tested on: RNASEH2A knockout (KO) TK-6 cells and parental TK-6 cells; assay: In vitro growth inhibition assay, Cell Titer-Glo, 72 hours; assay type: cell-based; conditions: FIG. 9
Experimental: To determine further whether RNASEH2A is involved in the sensitization to compound 1, in vitro growth inhibition assay of compound 1 was carried out in RNASEH2A knockout (KO) TK-6 cells and its counterpart parental TK-6 cells. RNASEH2A KO TK-6 cells and its counterpart parental TK-6 cells were obtained from Kyoto University under a material transfer agreement. The cell lines were cultured in RPMI-1640 medium (FUJIFILM Wako Pure Chemical Corporation, Osaka, JAPAN) supplied with 10% Fetal Bovine Serum (CORNING Inc., NY, USA), sodium pyruvate (FUJIFILM Wako Pure Chemical Corporation, Osaka, JAPAN), and Penicillin-Streptomycin (FUJIFILM Wako Pure Chemical Corporation, Osaka, JAPAN). Stock solutions of compound 1 were prepared in dimethyl sulfoxide (DMSO), and stored at approximately −20 deg C.
Cell proliferation was measured by using Cell Titer-Glo Luminescent Cell Viability Assay (Promega, WI, USA.). The CellTiter-Glo Luminescent Cell Viability Assay is a homogeneous method of determining the number of viable cells in culture based on quantitation of the ATP present, which signals the presence of metabolically active cells. […] Luminescence of each well was measured by EnVision™ (PerkinElmer Inc., MA, USA). Taking as 100% the ATP content for the DMSO treatment control group, the ratio of the residual ATP content for each treatment group was determined. […]

In the case of `Cc1[nH]ncc1-c1cc2nc([C@@H]3CC4CCN3CC4)[nH]c(=O)c2s1` [Compound 1, 2-[(2S)-1-azabicyclo[2.2.2]oct-2-yl]-6-(3-methyl-1H-pyrazol-4-yl)thieno[3,2-d]pyrimidin-4(3H)-one], the “repair of IR-induced DSBs” value ([1]; 300 nM Compound 1 + IR 4 Gy, HeLa cells) is reported as “delays repair of IR-induced DSBs; also recorded: delays repair of irradiation induced double-strand breaks (DSBs)”, the “53BP1 foci-positive cells (≥10 foci/cell)” value ([1]; co-treated with IR 4 Gy and Compound 1 300 nM, 48 h after IR treatment, HeLa) is reported as “still observed with high frequency” and the CR per group ([2]; by note order: Anti-mCTLA-4 study in CT26 (40 mm^3)) is reported as 0. It also gave a CR per group ([2]; by note order: Anti-mCTLA-4 study in CT26 (50 mm^3)) of 0, a CR per group ([2]; by note order: Anti-mPD-1 study in CT26 (40 mm^3)) of 0 and a CR per group ([2]; by note order: Anti-mPD-1 study in CT26 (50 mm^3)) of 0. The CR per group ([2]; by note order: Anti-mPD-1 study in CT26 (64 mm^3)) was “no CR”, the CR per group ([2]; by note order: NKTR-214 + anti-mPD-1 study in CT26 (64 mm^3)) was “no CR” and the CR per group ([2]; by note order: NKTR-214 study in CT26 (64 mm^3)) was “no CR”. The CR per group ([3]; by note order: Anti-mPD-1 study in A20 (61 mm^3)) was 1, the CR per group ([3]; by note order: NKTR-214 + anti-mPD-1 study in A20 (61 mm^3)) was 1 and the CR per group ([3]; by note order: NKTR-214 study in A20 (61 mm^3)) was 1. The “sensitivity of cancer cells with mutation or deletion of at least one sensitizing hit gene” value [4] was “more sensitive” and the “sensitivity (growth inhibition) of RNASEH2A KO TK-6 cells versus WT TK-6 cells” value [5] was “more sensitive”.
